The numbers were not newly measured in US5480649A, “Procaterol-containing preparation for application to the skin” (Teikoku Seiaku Kabushiki Kaisha, priority 1990, dated 1996), which cites them from elsewhere.

The data set has as its system β-receptor of sympathetic nerves. The following applies: background statement.

Molecules are shown by their SMILES.

With `CCC(NC(C)C)C(O)c1ccc(O)c2[nH]c(=O)ccc12` (centres unmarked) [procaterol], the bronchodilating activity result is reported as “strong bronchodilating activity in very small amounts” and the “duration of the activity” value is ≥ 8 h.
